Source: patent US20080261911A1, “Uses of diphenyl/diphenylamine carboxylic acids” (priority 2006, published 2008)
Marks after values point to notes of the source that are not given here.

Assays:
[1] = system: Sp1, Sp3 and Sp4 proteins; test: Western blot of Sp1, Sp3 and Sp4 protein expression in L3.6pl cells; assay type: cell-based, human; details: 50 μM, 48 hr
Procedure: Cells were treated with 50 μM non-steroidal anti-inflammatory drugs/COX-1/2 inhibitors for 48 hr and whole cell lysates were analyzed by Western blot analysis. […] Protein band intensities were standardized based on β-tubulin protein as a loading control.
Cells are washed once with phosphate buffered saline PBS and collected by scraping in 200 μL of lysis buffer [50 mM HEPES, 0.5M sodium chloride, 1.5 mM magnesium chloride, 1 mM EGTA, 10% (v/v) glycerol, 1% Triton X-100, 5 μL/ml of Protease Inhibitor Cocktail (Sigma)]. The lysates from the cells are incubated on ice for 1 hr with intermittent vortexing followed by centrifugation at 40,000 g for 10 min at 4° C. Equal amounts of protein (60 μg) from each treatment group are diluted with loading buffer, boiled and loaded onto 10 and 12.5% SDS-polyacrylamide gel. […] Samples are electrophoresed, transferred to membranes, and proteins detected by incubation with polyclonal primary antibodies Sp1, Sp3, Sp4, HDAC, VEGF (a-20), c-Met, surviving, VEGF, cleaved PARP, and β-tubulin (H-235) followed by blotting with appropriate horseradish peroxidase-conjugated secondary antibody as previously described (Abdelrahim et al, 2004). After autoradiography, band intensities are determined by a scanning laser densitometer (Sharp Electronics Corporation, Mahwah, N.J.) using ZERO-D SCANALYTICS software (Scanalytics Corporation, Billerica, Mass.).

[2] = system: VEGF promoter constructs pVEGF1 and pVEGF2; test: VEGF promoter (pVEGF1/pVEGF2) luciferase transactivation in L3.6pl cells; assay type: cell-based, human; details: 50 μM
Procedure: Cells were transfected with pVEGF1 or pVEGF2 treated with DMSO, 50 μM ampiroxicam, tolfenamic acid, or diclofenac sodium, and luciferase activity determined. […] Panc-1 cells were transfected with pVEGF2, treated with 20, 40, 60 or 80 μM ampiroxicam or tolfenamic acid, and luciferase determined. […] Cells are cultured in 6-well plates in 2 ml of DME/F12 medium supplemented with 5% fetal bovine serum.

[3] = system: Sp protein binding to GC-rich VEGF promoter oligonucleotide; test: Gel mobility shift of nuclear extracts from L3.6pl cells with VEGF32P; assay type: cell-based, human; details: nuclear extracts of L3.6pl cells treated with 50 μM for 48 hr
Procedure: Vascular endothelial growth factor and VEGFR1 oligonucleotides are synthesized and annealed, and 5 pmol aliquots are 5′-end-labeled using T4 kinase and [y-^32P]ATP. After the reaction sample was incubated 20 min on ice, and antibodies against Sp1, Sp3, and Sp4 proteins are added and incubated another 20 min on ice. Protein-DNA complexes are resolved by 5% polyacrylamide gel electrophoresis as previously described (Abdelrahim et al, 2004; Abdelrahim et al, 2005, Abdelrahim et al, submitted 2005).
Panc1 or L3.6pl cells were treated with DMSO, 50 μM tolfenamic acid or 50 μM ampiroxicam for 48 hr. Nuclear extracts from these cells were isolated, incubated with VEGF^32P and analyzed in gel mobility shift assays.
The radiolabeled oligonucleotide contained a GC-rich region (−66 to −47) from the VEGF promoter that binds Sp proteins.

VEGF protein = VEGF protein expression in Panc-1 cells, Western blot; assay type: cell-based; details: 50 μM, 48 hr, compared to DMSO
Procedure: Cells are washed once with phosphate buffered saline PBS and collected by scraping in 200 μL of lysis buffer [50 mM HEPES, 0.5M sodium chloride, 1.5 mM magnesium chloride, 1 mM EGTA, 10% (v/v) glycerol, 1% Triton X-100, 5 μL/ml of Protease Inhibitor Cocktail (Sigma)]. The lysates from the cells are incubated on ice for 1 hr with intermittent vortexing followed by centrifugation at 40,000 g for 10 min at 4° C. Equal amounts of protein (60 μg) from each treatment group are diluted with loading buffer, boiled and loaded onto 10 and 12.5% SDS-polyacrylamide gel. For vascular endothelial growth factor immunoblots, 100 μg of protein are used. Samples are electrophoresed, transferred to membranes, and proteins detected by incubation with polyclonal primary antibodies Sp1, Sp3, Sp4, HDAC, VEGF (a-20), c-Met, surviving, VEGF, cleaved PARP, and β-tubulin (H-235) followed by blotting with appropriate horseradish peroxidase-conjugated secondary antibody as previously described (Abdelrahim et al, 2004). After autoradiography, band intensities are determined by a scanning laser densitometer (Sharp Electronics Corporation, Mahwah, N.J.) using ZERO-D SCANALYTICS software (Scanalytics Corporation, Billerica, Mass.).

VEGFR1 mRNA [4] = test: VEGFR1 mRNA in Panc-1 cells, semi-quantitative RT-PCR; assay type: cell-based; details: 50 μM, 24 h
Procedure: FIGS. 17A-17D show effects of tolfenamic acid on the VEGFR1 promoter and mRNA expression. Transfection with pVEGFR1-A (FIG. 17A), pVEGFR1-B (FIG. 17B), and pVEGFR1-C (FIG. 17C). Panc-1 cells were transfected with pVEGFR1 constructs, treated with DMSO, 50 μM ampiroxicam, or 50 μM tolfenamic acid, and luciferase activity was determined as described in Materials and Methods. […] Results are shown for a single experiment and similar data was obtained in replicate experiments.

VEGFR1 mRNA [5] = test: VEGFR1 mRNA in L3.6pl cells, semi-quantitative RT-PCR; assay type: cell-based, human; details: 50 μM, 24 h
L3.6pl cells = test: Cell proliferation assay, L3.6pl cells; assay type: cell-based, human
Procedure: (§1) FIGS. 7A-7D compares effects of tolfenamic acid and ampiroxicam on pancreatic cancer cell proliferation. […] Panc1, Panc28 and L3.6pl cells are seeded in DMEM/F12 media with 5% FBS and treated the next day with either vehicle (DMSO) or with the indicated compounds' concentrations. Cells are counted at the indicated times using a Z1™ COULTER COUNTER® cell counter. Each experiment is carried out in triplicate and results expressed as means ±SD for each determination.

Panc-28 cells = test: Cell proliferation assay, Panc-28 cells; assay type: cell-based
Procedure: as §1

[6] = system: SEG-1 esophageal cancer cells; test: Cell proliferation assay, SEG-1 esophageal cancer cells; assay type: cell-based; set-up: dose or concentration left out as unconfirmed; details: DMSO control
[7] = system: Bic-1 esophageal cancer cells; test: Cell proliferation assay, BIC-1 esophageal cancer cells; assay type: cell-based; set-up: dose or concentration left out as unconfirmed; details: tolfenamic acid, DMSO control
[8] = system: orthotopically implanted human pancreatic L3.6p1 cancer cells; test: Orthotopic pancreatic tumor model in athymic nude mice; details: for Body Weight Median / Incidence Liver metastasis / Pancreatic Tumor Incidence (positive mice/mice injected) / Tumor Volume Median / Tumor Weight Median: thrice weekly oral from day 7, sacrificed day 35
Procedure: Median tumor volumes (FIG. 8A) and weights (FIG. 8B) in athymic nude mice treated orthotopically with L3.6pl cells, and corn oil (control), tolfenamic acid (25 and 50 mg/kg), and gemcitabine (50 mg/kg) were determined. […] Tumors from the various treatment groups were analyzed for Sp1, Sp3, Sp4, and VEGF protein expression by Western blot analysis. […] Immunostaining is shown for VEGF (FIG. 8D), and CD31 (FIG. 8E). Pancreatic tumor sections from animals treated with solvent (control), gemcitabine (50 mg/kg) and tolfenamic acid (25 and 50 mg/kg) were immunostained with VEGF and CD31 antibodies.
Male athymic nude mice (NCI-nu) are purchased from the Animal Production Area of the National Cancer Institute Frederick Cancer Research and Development Center, housed and maintained under specific pathogen-free conditions in accordance with current regulations and standards of the United States Department of Agriculture. Injection of L3.6pl cells (with greater than 90% viability is performed as previously described (Bruns et al, 1999). Seven days after implantation of tumor cells into the pancreas of each mouse, five mice are killed to confirm the presence of tumor lesions.
Mice (10 animals per treatment group) are randomized to receive one of the following treatments: (1) thrice weekly oral administrations of vehicle solution which will serve as a control group; (2) thrice weekly oral administrations of at least three non-steroidal anti-inflammatory drugs at doses of 10, 25, and 50 mg/kg/day; (3) twice weekly intraperitoneal injections of 50, 75, and 100 mg/kg/day gemcitabine alone; and (4) combinations of gemcitabine and non-steroidal anti-inflammatory drugs. Mice are sacrificed on day 35 and body weights measured. Primary tumors in the pancreas are excised, measured, weighed. For immunohistochemistry (IHC) and hematoxylin and eosin (H&E) staining procedures, one part of the tumor tissue is fixed in formalin and embedded in paraffin, and another part is embedded in TISSUE-TEK® O.C.T. compound, rapidly frozen in liquid nitrogen, and stored at −70° C. Visible liver metastases are counted with the aid of a dissecting microscope, and the tissues processed for hematoxylin and eosin staining.
Paraffin-embedded tissues are used for identification of Sp proteins, VEGFR2p27 and vascular endothelial growth factor. Tissue sections ([…] thick) are mounted on positively charged SUPERFROST slides (Fischer Scientific, Co, Houston, Tex.) and dried overnight. Sections are deparaffinized in xylene and treated with a graded series of alcohol [100, 95, and 80% ethanol (v/v) in double distilled H2O] and rehydrated in phosphate buffered saline (pH 7.5). Tissues are treated with pepsin (Biomeda) for 15 min at 37° C. and washed with phosphate buffered saline. A positive reaction is visualized by incubating the slides with stable 3,3′-diaminobenzidine for 10-20 min. Sections are rinsed with distilled water, counterstained with Gill's hematoxylin for 1 min, and mounted with UNIVERSAL MOUNT (Research Genetics). […] Tumor sample lysates are also examined by western blot analysis for the same proteins.
The potential anti-tumorigenic and anti-angiogenic activity of tolfenamic acid against pancreatic tumors was investigated in an orthotopic athymic nude mouse model. L3.6pl cells were used for this study based on their aggressive growth and production of liver metastases (Bruns et al, 1999; Dubois et al, 1998).

[9] = tolfenamic acid 50 mg/kg, p < 0.005 vs controls

Question: What does the source list for `Cc1c(Cl)cccc1Nc1ccccc1C(=O)O` [tolfenamic acid]?
Answer: decrease of Sp1, Sp3 and Sp4 proteins [1]: greater than 65%; luciferase activity, pVEGF1 and pVEGF2 constructs [2]: results similar to those observed in Panc-1 cells; Sp3 and Sp1/Sp4 retarded bands with VEGF32P [3]: retarded bands were decreased; decrease of vascular endothelial growth factor expression (protein) (VEGF protein): greater than 60%; VEGFR1 mRNA levels (VEGFR1 mRNA [4]): decreased VEGFR1 mRNA levels; VEGFR1 mRNA levels (VEGFR1 mRNA [5]): decreased VEGFR1 mRNA levels; potency as inhibitor of pancreatic cell growth relative to ampiroxicam (L3.6pl cells): more potent as an inhibitor of pancreatic cell growth than ampiroxicam; cell growth (L3.6pl cells; 25-100 μM, 6 days): significantly (p<0.05) inhibited cell growth; potency as inhibitor of pancreatic cell growth relative to ampiroxicam (Panc-28 cells): more potent as an inhibitor of pancreatic cell growth than ampiroxicam; cell growth (Panc-28 cells; 25-100 μM, 6 days): significantly (p<0.05) inhibited cell growth; growth of SEG-1 esophageal cancer cells [6]: inhibits growth; growth of BIC-1 esophageal cancer cells [7]: inhibits growth; median tumor weights and volumes ([8]; 25 or 50 mg/kg/d): decreased median tumor weights and volumes; percent incidence of liver metastasis ([8]; 25 or 50 mg/kg/d): decreased the percent incidence of liver metastasis; tumor growth inhibition compared with gemcitabine ([8]; at comparable doses): more effective than gemcitabine as a tumor growth inhibitor; CD31 staining (microvessel density) in tumors ([8]; compared to tumors from vehicle (corn oil) or gemcitabine-treated animals): decreased staining; Body Weight Median ([8]; tolfenamic acid 25 mg/kg): 25 g; Incidence Liver metastasis ([8]; tolfenamic acid 25 mg/kg): 1/10; Pancreatic Tumor Incidence (positive mice/mice injected) ([8]; tolfenamic acid 25 mg/kg): 10/10; Tumor Volume Median ([8]; tolfenamic acid 25 mg/kg): 1732.8 mm^3; Tumor Weight Median ([8]; tolfenamic acid 25 mg/kg): 1.2 g; Body Weight Median ([8]; tolfenamic acid 50 mg/kg): 24 g; Incidence Liver metastasis ([8]; tolfenamic acid 50 mg/kg): 1/10; Pancreatic Tumor Incidence (positive mice/mice injected) ([8]; tolfenamic acid 50 mg/kg): 10/10; Tumor Volume Median [8, 9]: 348.8^c mm^3; Tumor Weight Median [8, 9]: 0.4^c g; immunostaining for vascular endothelial growth factor in tumor sections ([8]; tolfenamic acid 25 and 50 mg/kg): decreased staining; VEGFR1 staining of tumor tissue ([8]; tolfenamic acid 25 and 50 mg/kg, gemcitabine 50 mg/kg and solvent as comparison): decreased VEGFR1 expression only in tumors from tolfenamic acid-treated mice; expression of Sp1, Sp3, Sp4 and vascular endothelial growth factor in pancreatic tumors, Western blot ([8]; tolfenamic acid versus corn oil control-treated animals): significantly decreased expression of Sp1, Sp3, Sp4 and vascular endothelial growth factor
